pIC50: −log10 of the molar value. Activity calls are given as the source filed them. No cut-off for these calls is given here.
Assays:
[1] = Inhibition of alpha-amylase (unknown origin); set-up: species or system Homo sapiens
[2] = Inhibition of porcine pancreatic alpha-amylase using starch as substrate preincubated for 10 mins followed by substrate addition and measured after 5 mins; set-up: species or system Sus scrofa
[3] = species: Homo sapiens; assay: Inhibition of alpha-glucosidase (unknown origin) using p-NPG as substrate preincubated for 5 mins followed by substrate addition and measured after 30 mins relative to control; set-up: concentration or dose not given beside the values; settings: time 35.0 min
[4] = species: Homo sapiens; assay: Inhibition of alpha-amylase (unknown origin) using starch as substrate preincubated for 10 mins followed by substrate addition and measured after 10 mins relative to control; set-up: concentration or dose not given beside the values; settings: time 20.0 min
[5] = Inhibition of alpha-amylase (unknown origin) using starch as substrate preincubated for 10 mins followed by substrate addition and measured after 10 mins; set-up: species or system Homo sapiens
[6] = system: Rattus norvegicus; assay: Antidiabetic activity against streptozotocin-induced diabetic Wistar rat model assessed as restoration of metabolic homeostasis by measuring serum creatinine level at 10 mg/kg, po measured on day 1 to 14 (reference value: 116.81 +/-9.26 uM); assay type: functional; settings: time 1-14 day
[7] = system: Rattus norvegicus; assay: Antidiabetic activity against streptozotocin-induced diabetic Wistar rat model assessed as blood glucose level at 10 mg/kg, po and measured on day 7 (reference value: 378.8 +/-6.48 mg/dl); assay type: functional; settings: time 7 day
[8] = system: Rattus norvegicus; assay: Antidiabetic activity against streptozotocin-induced diabetic Wistar rat model assessed as restoration of metabolic homeostasis by measuring decrease in […] level in serum at 10 mg/kg, po measured on day 1 to 14; assay type: functional, organism-based; settings: time 1-14 day
[9] = system: Rattus norvegicus; assay: Antidiabetic activity against streptozotocin-induced diabetic Wistar rat model assessed as restoration of metabolic homeostasis by measuring ALT level in serum at 10 mg/kg, po measured on day 1 to 14 (reference value: 35.2 +/-1.58 IU/L); assay type: functional; settings: time 1-14 day
[10] = system: Rattus norvegicus; assay: (§1) Protection against diabetes-induced organ dysfunction in streptozotocin-induced diabetic Wistar rat model assessed as reduction in pancreas damage by measuring well preserved islet structure at 10 mg/kg, po and measured on day 14 by Hematoxylin-Eosin staining based analysis; assay type: functional, organism-based; settings: time 14.0 day
[11] = system: Rattus norvegicus; assay: Antidiabetic activity against streptozotocin-induced diabetic Wistar rat model assessed as blood glucose level at 10 mg/kg, po and measured on day 14 (reference value: 388.3 +/-6.34 mg/dl); assay type: functional; settings: time 14 day
[12] = system: Rattus norvegicus; assay: Antidiabetic activity against streptozotocin-induced diabetic Wistar rat model assessed as blood glucose level at 10 mg/kg, po and measured on day 1 (reference value: 324.7 +/-6.24 mg/dl); assay type: functional; settings: time 1 day
[13] = system: Rattus norvegicus; assay: Antidiabetic activity against streptozotocin-induced diabetic Wistar rat model assessed as restoration of metabolic homeostasis by measuring AST level in serum at 10 mg/kg, po measured on day 1 to 14 (reference value: 133.49 +/-2.52 IU/L); assay type: functional; settings: time 1-14 day
[14] = system: Rattus norvegicus; assay: as §1, with “liver” for “pancreas”, “improved hepatic sinusoid congestion and healthier hepatocytes with reduced lipid droplets” for “well preserved islet structure”; assay type: functional, organism-based; settings: time 14.0 day
[15] = system: Rattus norvegicus; assay: Antidiabetic activity against streptozotocin-induced diabetic Wistar rat model assessed as restoration of metabolic homeostasis by measuring serum urea level at 10 mg/kg, po measured on day 1 to 14 (reference value: 124.68 +/-2.16 mg/dl); assay type: functional; settings: time 1-14 day
[16] = species: Homo sapiens; assay: Mixed type of inhibition of alpha-amylase (unknown origin) assessed as change in Km and Vmax of substrate using starch as substrate and measured after 10 mins by Lineweaver-burk plot analysis
[17] = species: Homo sapiens; assay: Potency index, ratio of acarbose IC50 to test compound IC50 for inhibition of alpha-amylase (unknown origin) using starch as substrate preincubated for 10 mins followed by substrate addition and measured after 10 mins; settings: time 20.0 min
[18] = system: Rattus norvegicus; assay: Antidiabetic activity against streptozotocin-induced diabetic Wistar rat model assessed as restoration of metabolic homeostasis by measuring ALP level in serum at 10 mg/kg, po measured on day 1 to 14 (reference value: 195.13 +/-1.08 IU/L); assay type: functional; settings: time 1-14 day
[19] = system: Rattus norvegicus; assay: as §1, with “kidney” for “pancreas”, “kidney with structural improvement and reduced retraction,” for “well”, “glomeruli and less hemorrhages” for “islet structure”; assay type: functional, organism-based; settings: time 14.0 day

Row | Structure (SMILES) | inhibition [3] [%] | inhibition [4] [%] | other results
1 | COc1ccc(C(=O)NC(=O)NC2CC2)cc1 |  |  | pIC50 [1]: 5.80
2 | COC(=O)[C@@H]1N[C@@]2(C(=O)Nc3ccc(Br)cc32)[C@@]2(SC(=S)NC2=O)[C@H]1c1ccccc1 |  |  | pIC50 [2]: 5.83
3 | Fc1ccc(NC(=S)Nc2nnc(-c3ccc4cn[nH]c4c3)s2)cc1 |  |  | pIC50 [1]: 5.00
4 | Cn1ccnc1/C=C1\SC(=S)N(CC(=O)Nc2cccnn2)C1=O | 9.47 | 27.4 | 
5 | O=C1OCc2cc(-c3ccc(C(F)(F)F)cc3)ccc21 |  |  | pIC50 [1]: 4.07
6 | Cn1ccnc1/C=C1\SC(=S)N(CC(=O)NC23CC4CC(CC(C4)C2)C3)C1=O | 8.22 | 15.2 | 
7 | CC(C)CNC(=O)CN1C(=O)/C(=C/c2nccs2)SC1=S | 6.43 | 30.4 | 
8 | O=C(CN1C(=O)/C(=C/c2nccs2)SC1=S)Nc1ccc(C(F)(F)F)cc1 | 7.83 | 34.8 | 
9 | O=C(CN1C(=O)/C(=C/c2nccs2)SC1=S)Nc1ccc(Br)cc1F | 9.25 | 22.6 | 
10 | Cn1ccnc1/C=C1\SC(=S)N(CC(=O)Nc2ccc(C(F)(F)F)cc2)C1=O | 6.43 | 80.4 | Activity [6]: 82.14 µM; Activity [7]: 149.7 mg/dL; Activity [8]: Active; Activity [9]: 12.04 IU/L; Activity [10]: Active; Activity [11]: 106.2 mg/dL; Activity [12]: 328.3 mg/dL; Activity [13]: 41.13 IU/L; Activity [14]: Active; Activity [15]: 57.31 mg/dL; inhibition [16]: Active; Ratio IC50 [17]: 1340; Activity [18]: 138.41 IU/L; Activity [19]: Active; pIC50 [5]: 6.15
11 | O=C(Cc1c[nH]c2ccccc12)NNS(=O)(=O)c1ccccc1F |  |  | pIC50 [1]: 5.74
12 | Oc1ccc(-c2nnc(CSc3nc4ccccc4[nH]3)o2)c(O)c1 |  |  | pIC50 [1]: 5.21
13 | O=C(CN1C(=O)/C(=C/c2csc3ccccc23)SC1=S)Nc1ccc(C(F)(F)F)cc1 | 4.59 | 73.5 | Ratio IC50 [17]: 68; pIC50 [5]: 4.85
14 | CC(C)CNC(=O)CN1C(=O)/C(=C/c2csc3ccccc23)SC1=S | 8.62 | 29.6 | 
15 | O=C(CN1C(=O)/C(=C/c2csc3ccccc23)SC1=S)NC12CC3CC(CC(C3)C1)C2 | 6.53 | 32.5 | 

The next lines start with results.

Row | inhibition [3] [%] | inhibition [4] [%] | Structure (SMILES) | other results
16 | 6.49 | 60.4 | O=C(CN1C(=O)/C(=C/c2csc3ccccc23)SC1=S)Nc1c(F)cc(F)cc1Br | pIC50 [5]: 3.72
17 | 6.23 | 43.2 | CC(C)CNC(=O)CN1C(=O)/C(=C/c2nc3ccccc3s2)SC1=S | 
18 | 4.88 | 23.3 | CC(C)CNC(=O)CN1C(=O)/C(=C/c2nccn2C)SC1=S | 
19 | 5.14 | 47.1 | O=C(CN1C(=O)/C(=C/c2nccs2)SC1=S)Nc1c(F)cc(Br)cc1Cl | Ratio IC50 [17]: 21; pIC50 [5]: 4.35

Source: ChEMBL document CHEMBL6182895, “Synthesis, in vitro and in vivo evaluation, and computational modeling analysis of thioxothiazolidine derivatives as highly potent and selective α-amylase inhibitors” (Eur J Med Chem, 2025)
